According to patent publication US9944618B2, “Inhibiting neurotransmitter reuptake” (Mayo Foundation for Medical Education and Research, priority 2013, dated 2018):
Where two headings read alike, the source gives them in different places.

Key:
hERG = hERG (Homo sapiens (Human), UniProt Q12809); assay: Human ERG (hERG) assay, hERG currents in hERG-expressing CHO cells; format: cell-based; settings: hERG-expressing CHO cells
Source text: The voltage-dependent potassium channel encoded by the human ether-a-go-go-related gene (hERG) is believed to play a key role in repolarisation of the ventricular cardiac action potential. Changes in its activity, caused either by inherited mutations of the gene sequence or pharmacological modification, can lead to prolongation of action potential duration. This can lead to prolongation of the QT interval recorded in man on an electrocardiogram and to a potentially fatal cardiac arrhythmia known as Torsades de Pointes.
hERG currents were recorded from hERG-expressing CHO cells. The biophysical and pharmacological characterization of the hERG currents in these cells was performed.

[1] = molecular target: human norepinephrine transporter (Homo sapiens (Human), UniProt P23975); assay: Human NET (norepinephrine transporter) uptake assay; format: cell-based; settings: read-out: hNET Ki
Chain of human norepinephrine transporter (P23975 whole entry): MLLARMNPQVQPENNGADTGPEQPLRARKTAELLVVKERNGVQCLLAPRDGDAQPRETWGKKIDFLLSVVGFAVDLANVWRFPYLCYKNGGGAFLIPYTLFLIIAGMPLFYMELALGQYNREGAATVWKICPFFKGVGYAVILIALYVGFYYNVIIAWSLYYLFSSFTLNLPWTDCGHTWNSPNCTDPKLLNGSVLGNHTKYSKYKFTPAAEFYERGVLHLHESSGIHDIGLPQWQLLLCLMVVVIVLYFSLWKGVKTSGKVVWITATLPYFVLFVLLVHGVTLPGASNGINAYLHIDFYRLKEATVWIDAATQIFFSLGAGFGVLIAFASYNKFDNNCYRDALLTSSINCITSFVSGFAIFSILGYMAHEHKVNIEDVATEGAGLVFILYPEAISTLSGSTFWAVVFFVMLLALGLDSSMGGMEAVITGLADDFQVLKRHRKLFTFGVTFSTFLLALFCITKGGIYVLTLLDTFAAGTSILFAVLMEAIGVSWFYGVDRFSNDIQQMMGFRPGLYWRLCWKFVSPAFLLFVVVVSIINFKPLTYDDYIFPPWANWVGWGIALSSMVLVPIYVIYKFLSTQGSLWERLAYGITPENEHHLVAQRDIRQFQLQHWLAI
Procedure, shortened: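 HEK293F cells transfected with human NET were thawed, plated at about 60,000 cells/well and held at 37 °C for at least 3 h. Compounds came from 10 mM DMSO stocks, with nomifensine as control, in 1×HBSS/0.02 M HEPES. Uptake was followed with a neurotransmitter transporter dye, dosed as % of vendor reconstitution, in triplicate.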

[2] = molecular target: human dopamine transporter (Homo sapiens (Human), UniProt Q01959); assay: Human DAT (dopamine transporter) uptake assay; format: cell-based; settings: read-out: hDAT Ki
Chain of human dopamine transporter (Q01959 whole entry): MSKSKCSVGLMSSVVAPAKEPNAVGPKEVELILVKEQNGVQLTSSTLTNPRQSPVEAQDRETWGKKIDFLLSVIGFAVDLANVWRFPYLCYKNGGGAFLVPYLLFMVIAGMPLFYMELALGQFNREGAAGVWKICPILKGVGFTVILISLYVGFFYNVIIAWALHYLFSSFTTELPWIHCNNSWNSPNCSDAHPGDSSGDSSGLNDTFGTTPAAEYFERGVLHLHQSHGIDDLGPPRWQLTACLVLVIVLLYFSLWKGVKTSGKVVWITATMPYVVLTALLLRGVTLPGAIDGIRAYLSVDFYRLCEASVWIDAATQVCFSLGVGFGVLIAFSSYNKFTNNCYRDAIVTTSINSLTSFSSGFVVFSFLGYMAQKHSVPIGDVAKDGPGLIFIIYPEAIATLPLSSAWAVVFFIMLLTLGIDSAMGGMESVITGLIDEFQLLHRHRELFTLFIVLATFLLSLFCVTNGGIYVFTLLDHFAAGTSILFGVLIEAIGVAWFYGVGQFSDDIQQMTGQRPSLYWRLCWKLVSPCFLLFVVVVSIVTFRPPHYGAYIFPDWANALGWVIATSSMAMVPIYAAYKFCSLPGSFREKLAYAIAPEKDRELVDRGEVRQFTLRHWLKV
Procedure, shortened: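 Uptake inhibition was measured in HEK293F cells transfected with human DAT, plated at ~60,000 cells/well and settled ≥3 h at 37 °C. Compounds came from 10 mM DMSO stocks. Read-out was uptake of a fluorescent neurotransmitter transporter dye in HBSS with 0.02 M HEPES, with dye level given as % of vendor reconstitution; n=3.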

[3] = pKa of basic centres (Table 1); format: physicochemical
CYP2D6 = CYP2D6 (Homo sapiens (Human), UniProt P10635); assay: Cytochrome P450 inhibition assay, recombinant CYP2D6 (MAMC substrate); format: in vitro ADME; settings: recombinant enzyme
Chain of CYP2D6 (P10635 whole entry): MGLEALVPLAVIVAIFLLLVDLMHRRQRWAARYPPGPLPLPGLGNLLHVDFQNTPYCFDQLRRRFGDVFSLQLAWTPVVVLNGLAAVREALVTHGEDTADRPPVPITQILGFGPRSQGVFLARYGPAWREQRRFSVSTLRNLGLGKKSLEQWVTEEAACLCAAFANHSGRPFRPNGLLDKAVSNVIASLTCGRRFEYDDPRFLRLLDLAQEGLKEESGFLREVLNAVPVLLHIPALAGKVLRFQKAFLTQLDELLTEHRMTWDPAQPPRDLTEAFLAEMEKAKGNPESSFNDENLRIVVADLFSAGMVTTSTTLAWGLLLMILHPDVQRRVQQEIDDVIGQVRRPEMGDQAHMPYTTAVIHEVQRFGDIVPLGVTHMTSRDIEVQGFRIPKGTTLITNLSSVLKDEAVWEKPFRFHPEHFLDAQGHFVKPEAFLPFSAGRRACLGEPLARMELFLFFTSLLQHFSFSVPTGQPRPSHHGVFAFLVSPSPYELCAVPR
Experimental: (§1) Recombinant enzymes, 3A4 and 2D6, generated using the ABL yeast expression system were used. […] The assay mixture also included K2HPO4 (pH 7.4; conc. 0.1 M) and NADPH (conc. 1 mM). The incubation time was 30 minutes, and the reference inhibitor was A-naphthoflavone. For CYP2D6, the enzyme amount was 2 pmol per well, and the substrate (7-methoxy-4-(aminomethyl)-coumarin; MAMC) was used at 20 μM. The assay mixture also included K2HPO4 (pH 7.4; conc. 0.1 M) and NADPH (conc. 0.06 mM). The incubation time was 35 minutes, and the reference inhibitor was quinidine.
(§2) Briefly, 0.6 μL of serially diluted compound was added to 75 μL water. 10 μL of diluted compound in water was then added to each assay plate. 20 μL of a K2HPO4, enzyme, and substrate mixture was added. After 10 minutes of room temperature pre-incubation, 10 μL of NADPH was added, and the plates were placed at 37° C. for 30 or 35 minutes depending on the enzyme being tested. After the incubation was complete, 20 μL of 0.1% Tris/ACN was added to the plate. The plate was read on a FluorStar fluorescence plate reader.

[4] = molecular target: human serotonin transporter (Homo sapiens (Human), UniProt P31645); assay: Human SERT (serotonin transporter) uptake assay; format: cell-based; settings: read-out: hSERT Ki
Chain of human serotonin transporter (P31645 whole entry): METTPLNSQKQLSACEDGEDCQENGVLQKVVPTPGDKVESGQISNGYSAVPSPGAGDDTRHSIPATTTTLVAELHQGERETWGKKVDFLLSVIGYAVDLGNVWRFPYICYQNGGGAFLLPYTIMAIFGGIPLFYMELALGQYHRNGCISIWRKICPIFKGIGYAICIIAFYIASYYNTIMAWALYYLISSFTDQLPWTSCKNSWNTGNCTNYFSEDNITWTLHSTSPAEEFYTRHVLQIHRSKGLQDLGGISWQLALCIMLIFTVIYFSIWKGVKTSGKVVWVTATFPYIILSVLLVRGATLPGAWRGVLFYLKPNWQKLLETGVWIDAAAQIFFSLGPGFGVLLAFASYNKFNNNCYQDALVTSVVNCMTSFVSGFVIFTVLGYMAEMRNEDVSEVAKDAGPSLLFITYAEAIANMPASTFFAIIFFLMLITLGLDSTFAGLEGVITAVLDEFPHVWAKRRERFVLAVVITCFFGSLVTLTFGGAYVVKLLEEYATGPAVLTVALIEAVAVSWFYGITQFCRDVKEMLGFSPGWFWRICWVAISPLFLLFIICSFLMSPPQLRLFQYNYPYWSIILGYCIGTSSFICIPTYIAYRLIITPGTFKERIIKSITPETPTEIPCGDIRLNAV
Procedure, shortened: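 HEK293F cells transfected with human SERT, about 60,000 per well, settled for ≥3 h at 37° C before compound addition. Uptake was followed with a fluorescent transporter dye in HBSS with 0.02 M HEPES. Background came from 10 μM fluoxetine, nomifensine was the control, n=3.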

CYP3A4 = CYP3A4 (Homo sapiens (Human), UniProt P08684); assay: Cytochrome P450 inhibition assay, recombinant CYP3A4 (BFC substrate); format: in vitro ADME; settings: recombinant enzyme
Chain of CYP3A4 (P08684 whole entry): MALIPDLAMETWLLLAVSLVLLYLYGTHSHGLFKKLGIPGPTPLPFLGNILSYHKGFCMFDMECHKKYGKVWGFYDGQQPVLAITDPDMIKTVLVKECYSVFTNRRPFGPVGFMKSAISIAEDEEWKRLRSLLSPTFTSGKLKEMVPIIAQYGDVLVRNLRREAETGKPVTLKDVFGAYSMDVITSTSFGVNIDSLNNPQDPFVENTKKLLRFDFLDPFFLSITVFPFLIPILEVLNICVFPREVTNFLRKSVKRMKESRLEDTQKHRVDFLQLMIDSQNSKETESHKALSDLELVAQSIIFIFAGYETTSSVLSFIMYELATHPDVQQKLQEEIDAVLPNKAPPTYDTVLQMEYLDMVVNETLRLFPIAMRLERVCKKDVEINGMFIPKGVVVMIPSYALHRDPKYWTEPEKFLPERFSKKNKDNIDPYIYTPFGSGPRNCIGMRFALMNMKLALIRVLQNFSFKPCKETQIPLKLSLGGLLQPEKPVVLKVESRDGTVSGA
Experimental: as §1, §2

[5] = first base, e.g., an aliphatic primary, secondary, or tertiary amine, read-out: pKa (Base 1)
[6] = second base in the same molecule (if present), read-out: pKa (Base 2)

Chain of hERG (Q12809 whole entry): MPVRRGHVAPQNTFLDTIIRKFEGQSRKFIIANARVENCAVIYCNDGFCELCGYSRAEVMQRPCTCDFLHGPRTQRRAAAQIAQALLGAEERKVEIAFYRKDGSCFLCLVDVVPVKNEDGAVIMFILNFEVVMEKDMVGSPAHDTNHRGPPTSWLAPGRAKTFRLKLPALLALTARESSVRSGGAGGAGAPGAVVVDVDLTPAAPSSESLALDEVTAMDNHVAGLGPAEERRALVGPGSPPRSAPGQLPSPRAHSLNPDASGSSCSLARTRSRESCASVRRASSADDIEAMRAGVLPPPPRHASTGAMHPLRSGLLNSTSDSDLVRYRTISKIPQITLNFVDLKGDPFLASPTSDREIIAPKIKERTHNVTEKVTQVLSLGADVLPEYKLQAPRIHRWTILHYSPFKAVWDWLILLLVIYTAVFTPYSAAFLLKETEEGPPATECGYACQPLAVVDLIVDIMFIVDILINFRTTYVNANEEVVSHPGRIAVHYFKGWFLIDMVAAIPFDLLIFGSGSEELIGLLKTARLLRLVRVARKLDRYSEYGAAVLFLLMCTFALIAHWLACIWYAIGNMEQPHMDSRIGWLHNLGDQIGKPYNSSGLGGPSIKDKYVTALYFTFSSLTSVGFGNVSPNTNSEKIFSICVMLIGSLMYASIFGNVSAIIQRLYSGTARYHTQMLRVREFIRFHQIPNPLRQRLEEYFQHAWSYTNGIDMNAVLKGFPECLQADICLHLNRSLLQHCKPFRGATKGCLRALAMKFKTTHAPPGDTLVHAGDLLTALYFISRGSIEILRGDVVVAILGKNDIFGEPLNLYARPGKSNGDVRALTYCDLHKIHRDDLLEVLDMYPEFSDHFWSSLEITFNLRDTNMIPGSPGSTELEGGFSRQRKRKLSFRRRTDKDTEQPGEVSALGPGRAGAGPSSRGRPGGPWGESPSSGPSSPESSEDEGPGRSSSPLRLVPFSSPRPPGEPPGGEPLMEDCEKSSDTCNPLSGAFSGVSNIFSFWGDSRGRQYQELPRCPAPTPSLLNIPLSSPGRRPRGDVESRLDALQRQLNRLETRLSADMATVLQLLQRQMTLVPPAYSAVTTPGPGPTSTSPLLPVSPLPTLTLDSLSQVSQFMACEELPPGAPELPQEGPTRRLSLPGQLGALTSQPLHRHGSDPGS

Structure (SMILES)	IC50 (hERG)	Ki [1]	Ki [2]	pKa [3, 5]	pKa [3, 6]	IC50 (CYP2D6)	Ki [4]	IC50 (CYP3A4)	pKa (Base 1) ([3]; first base, e.g., an aliphatic primary, secondary, or tertiary amine)
CNC[C@H](c1ccc2ccccc2c1)[C@H](O)c1cccnc1 (racemic) [Compound 62]	25000 nM	6.5 nM	45 nM	9.6	5.1	1000 nM	9.9 nM	≥ 20000 nM	
CNC[C@@H](c1ccc2ccccc2c1)[C@H](O)c1ccccn1 (racemic) [Compound 72]	33000 nM	10.1 nM	100 nM	9.6	4.1	760 nM	27.6 nM	≥ 20000 nM	
CN(C)C[C@H](c1ccc2ccccc2c1)[C@H](O)c1cccs1 (racemic) [Compound 135]	3100 nM	11.7 nM	58.1 nM	8.9		910 nM	21.4 nM	≥ 20000 nM	
CNC[C@H](c1ccc2ccccc2c1)[C@H](OC)c1ccc2c(c1)OCO2 (racemic) [Compound 136]	5400 nM	37.4 nM	64.5 nM	9.7		190 nM	15.7 nM	3400 nM	
CNC[C@@H](c1ccc2ccccc2c1)[C@@H](O)c1ccc2c(c1)OCCO2 (racemic) [Compound 145]	11000 nM	10.9 nM	134 nM	9.7		310 nM	9.4 nM	19000 nM	
CNC[C@H](c1ccc(Cl)c(Cl)c1)[C@H](O)c1cccc(I)c1 (single isomer, unassigned) [Compound 151]	3800 nM	20.4 nM	31.4 nM	9.4		130 nM	45.2 nM	2100 nM	
CNC[C@H](c1ccc2ccccc2c1)[C@H](OCC(N)=O)c1ccccc1 [Compound 3]	33000 nM	1.3 nM	5.2 nM	9.6		1300 nM	0.6 nM	20000 nM	
CNC[C@@H](Cc1ccccc1)c1ccc2ccccc2c1 [Compound 5]	6500 nM	1.4 nM	10.1 nM	10.1		240 nM	2.8 nM	18000 nM	
CNC[C@H](c1ccc2ccccc2c1)[C@H](F)c1ccccc1 [Compound 9]	9500 nM	1.5 nM	42.3 nM	9.4		210 nM	5.7 nM	8600 nM	
CNC[C@H](c1ccc(Cl)c(Cl)c1)[C@H](O)c1ccccc1 [Compound 10]	9100 nM	1.5 nM	7.3 nM	9.4		120 nM	11.7 nM	20000 nM	
CNC[C@H](c1ccc2ccccc2c1)[C@@H](F)c1ccccc1 [Compound 11]	11000 nM	1.6 nM	11.1 nM	9.4		96 nM	4.2 nM	6700 nM	
CNC[C@H](c1ccc2ccccc2c1)[C@H](OCC(=O)NC1CC1)c1ccccc1 [Compound 13]	19000 nM	1.6 nM	19.7 nM	9.6		400 nM	5.4 nM	17000 nM	
CNC[C@H](c1ccc2ccccc2c1)[C@H](OCC(=O)NCCO)c1ccccc1 [Compound 14]	33000 nM	1.6 nM	79.3 nM	9.6		3700 nM	3.1 nM	20000 nM	
CNC[C@H](c1ccc2ccccc2c1)[C@H](O)c1ccccc1F [Compound 15]	12000 nM	1.7 nM	42.5 nM	9.7		200 nM	2.4 nM	20000 nM	
CNCC(c1ccc(Br)c(Cl)c1)[C@H](O)c1ccccc1 (stereo partly shown) [Compound 16]	5000 nM	1.8 nM	6.6 nM	9.4		230 nM	6.3 nM	19000 nM	
CNC[C@H](c1ccc2ccccc2c1)[C@H](OCC(=O)N1CC[C@H](O)C1)c1ccccc1 [Compound 19]	33000 nM	1.9 nM	17 nM	9.6		20000 nM	4.3 nM	20000 nM	
CNC[C@H](c1ccc(Br)c(Cl)c1)[C@@H](O)c1ccccc1 [Compound 21]	23000 nM	2 nM	32.4 nM	9.4		470 nM	66.4 nM	20000 nM	
CNC[C@H](c1ccc2ccccc2c1)[C@H](OCc1noc(C)n1)c1ccccc1 [Compound 22]	15000 nM	2 nM	56.7 nM	9.6		180 nM	2.1 nM	15000 nM	
CNC[C@H](c1ccc2ccccc2c1)[C@H](OCC(=O)N1CCOCC1)c1ccccc1 [Compound 23]	21000 nM	2 nM	65.6 nM	9.6		4900 nM	5.6 nM	20000 nM	
CNC[C@H](c1ccc2ccccc2c1)[C@H](O)c1ccc(Cl)nc1 [Compound 26]	7500 nM	2.2 nM	53.5 nM	9.6		27 nM	1.6 nM	20000 nM	
CNC[C@H](c1ccc2ccccc2c1)[C@H](O)c1ccccc1C [Compound 28]	15000 nM	2.4 nM	43.8 nM	9.7		160 nM	3.4 nM	9600 nM	
CNC[C@H](c1ccc2ccccc2c1)[C@H](OCC(=O)N1CC[C@@H](O)C1)c1ccccc1 [Compound 34]	33000 nM	2.7 nM	28.5 nM	9.6		12000 nM	7.5 nM	20000 nM	
CNCC(Cc1ccccc1C)c1ccc2ccccc2c1 (stereo not shown) [Compound 39]	8200 nM	3.1 nM	34.3 nM			170 nM	12.6 nM	8400 nM	10.1
